# Assay results taken from PMC7774306, “The Crystal Structures of Bacillithiol Disulfide Reductase Bdr (YpdA) Provide Structural and Functional Insight into a New Type of FAD-Containing NADPH-Dependent Oxidoreductase” (Biochemistry, 2020).
# Columns and labels:
# Bc YpdA (Bdr) = target: T1, Bc YpdA (Bdr) (Bacillus cereus, UniProt Q81FS4); test: NADPH consumption at […] nm; format: biochemical; settings: anaerobic
# T1 construct: gene BC_1495; expressed and purified; FAD-containing; biological homotetramer; tag details only in supplement
# T1 sequence (Q81FS4 1-326): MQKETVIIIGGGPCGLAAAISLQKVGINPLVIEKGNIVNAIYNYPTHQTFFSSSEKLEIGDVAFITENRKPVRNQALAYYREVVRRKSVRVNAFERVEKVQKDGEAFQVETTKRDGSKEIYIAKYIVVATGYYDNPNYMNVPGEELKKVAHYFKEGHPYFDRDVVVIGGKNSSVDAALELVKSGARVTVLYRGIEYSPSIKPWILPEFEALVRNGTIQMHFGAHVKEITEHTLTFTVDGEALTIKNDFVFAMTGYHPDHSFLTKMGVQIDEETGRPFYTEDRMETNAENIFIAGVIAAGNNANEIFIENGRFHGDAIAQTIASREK
# Sa YpdA (Bdr) [1] = target: T2, Sa YpdA (Bdr) (Staphylococcus aureus, UniProt A0A0H2WWS2); test: NADPH consumption at […] nm; format: biochemical; settings: NADPH as co-substrate; anaerobic
# T2 construct: gene SACOL1520; expressed and purified; FAD-containing; biological homotetramer; tag details only in supplement
# T2 sequence (A0A0H2WWS2 1-328): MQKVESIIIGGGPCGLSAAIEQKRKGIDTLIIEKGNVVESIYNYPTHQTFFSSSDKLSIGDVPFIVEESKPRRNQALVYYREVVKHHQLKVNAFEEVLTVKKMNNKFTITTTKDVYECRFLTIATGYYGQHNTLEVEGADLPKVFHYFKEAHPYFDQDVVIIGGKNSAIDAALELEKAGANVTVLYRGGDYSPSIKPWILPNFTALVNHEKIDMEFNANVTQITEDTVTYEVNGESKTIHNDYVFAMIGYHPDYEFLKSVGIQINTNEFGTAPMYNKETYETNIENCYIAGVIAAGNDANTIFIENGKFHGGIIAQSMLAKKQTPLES
# Sa YpdA (Bdr) [2] = target: T2, Sa YpdA (Bdr); test: X-ray crystallography; format: binding
structure (smiles),measurement,setting,value
N[C@@H](CSSC[C@H](N)C(=O)N[C@H]1[C@@H](O[C@@H](CC(=O)O)C(=O)O)O[C@H](CO)[C@@H](O)[C@@H]1O)C(=O)N[C@H]1[C@@H](O[C@@H](CC(=O)O)C(=O)O)O[C@H](CO)[C@@H](O)[C@@H]1O [BSSB],NADPH consumption at 340 nm,Bc YpdA (Bdr); NADPH as co-substrate,YpdAs from Bc and Sa are both able to reduce BSSB
same,NADPH consumption at 340 nm,Sa YpdA (Bdr) [1],YpdAs from Bc and Sa are both able to reduce BSSB
Cc1cc2nc3c(=O)[nH]c(=O)nc-3n(C[C@H](O)[C@H](O)[C@H](O)COP(=O)(O)OP(=O)(O)OC[C@H]3O[C@@H](n4cnc5c(N)ncnc54)[C@H](O)[C@@H]3O)c2cc1C [FAD],X-ray crystallography,"Sa YpdA (Bdr) [2]; bound cofactor, 2.9 and 3.1 A resolution","Monomer structure alignment of Bc and Sa YpdA, displaying the NADPH and FAD binding domains"
NC(=O)C1=CN([C@@H]2O[C@H](COP(=O)(O)OP(=O)(O)OC[C@H]3O[C@@H](n4cnc5c(N)ncnc54)[C@H](OP(=O)(O)O)[C@@H]3O)[C@@H](O)[C@H]2O)C=CC1 [NADPH],NADPH consumption at 340 nm,Bc YpdA (Bdr); BSSB as co-substrate,both Sa and Bc YpdAs can reduce BSSB with a rate of consumption of NADPH
same,X-ray crystallography,"Sa YpdA (Bdr) [2]; NADPH not added, co-purified, bound in chains C, D and F, FAD present",we observed in both Sa YpdA structures electron density for bound NADPH
